Measurements published in patent US20080269241A1, “BICYCLIC AMINOPROPYL TETRAHYDRO-PYRAZOLO-PYRIDINE MODULATORS OF CATHEPSIN S” (priority 2007, published 2008).

Molecular target: T1, human cathepsin S (CatS) (Homo sapiens, UniProt P25774)
T1 construct: made in house; host or cells: baculovirus system (insect cells)
Assay: Recombinant human cathepsin S (CatS) fluorogenic substrate inhibition assay
Format: biochemical
Conditions: recombinant human CatS, 10 μM Z-Valine-Valine-Arginine-AMC, pH 5.0; average of results obtained; read-out: CatS IC50
Protocol: Recombinant human cathepsin S (CatS) was expressed in the baculovirus system and purified in one step with a thiopropyl-sepharose column. […] The assay is run in 150 mM sodium acetate pH 5.0 containing 1.5 mM DTT and 150 mM NaCl. […] Measurements are taken every min for 20 min. The rate is calculated from the slope of the increase in fluorescence and the percent inhibition is calculated from this.

T1 sequence (P25774 115-331): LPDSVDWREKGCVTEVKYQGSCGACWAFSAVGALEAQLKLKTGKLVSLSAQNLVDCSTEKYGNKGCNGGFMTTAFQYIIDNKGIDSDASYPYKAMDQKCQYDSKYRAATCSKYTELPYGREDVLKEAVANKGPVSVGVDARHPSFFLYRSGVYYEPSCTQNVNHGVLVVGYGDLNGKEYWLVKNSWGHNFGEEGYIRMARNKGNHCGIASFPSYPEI

Compound | IC50 [nM]
Cn1ccnc1C(=O)NCc1cc(-c2nn(CC(O)CN3CCC(N4CCCC4=O)CC3)c3c2CN(S(C)(=O)=O)CC3)ccc1C(F)(F)F (stereo not drawn) [Example 190, 1-Methyl-1H-imidazole-2-carboxylic acid 5-(1-{2-hydroxy-3-[4-(2-oxo-pyrrolidin-1-yl)-piperidin-1-yl]-propyl}-5-methanesulfonyl-4,5,6,7-tetrahydro-1H pyrazolo[4,3-c]pyridin-3-yl)-2-trifluoromethyl-benzylamide] | 1700
CSCC(=O)NCc1cc(-c2nn(CCCN3CCC(N4CCCC4=O)CC3)c3c2CN(S(C)(=O)=O)CC3)ccc1C(F)(F)F [Example 125, N-[5-(5-Methanesulfonyl-1-{3-[4-(2-oxo-pyrrolidin-1-yl)-piperidin-1-yl]-propyl}-4,5,6,7-tetrahydro-1H-pyrazolo[4,3-c]pyridin-3-yl)-2-trifluoromethyl-benzyl]-2-methylsulfanyl-acetamide] | 200
CN(C)c1ccc(C(=O)Nc2cc(-c3nn(CCCN4CCN(c5cccc(Cl)c5)CC4)c4c3CN(S(C)(=O)=O)CC4)ccc2Cl)cc1 [Example 199, N-[2-Chloro-5-(1-{3-[4-(3-chloro-phenyl)-piperazin-1-yl]-propyl}-5-methanesulfonyl-4,5,6,7-tetrahydro-1H-pyrazolo[4,3-c]pyridin-3-yl)-phenyl]-4-dimethylamino-benzamide] | 470
CS(=O)(=O)N1CCc2c(c(-c3ccc(C(F)(F)F)c(CNC(=O)c4cscn4)c3)nn2CC(O)CN2CCC(N3CCCC3=O)CC2)C1 (stereo not drawn) [Example 114, Thiazole-4-carboxylic acid 5-(1-{2-hydroxy-3-[4-(2-oxo-pyrrolidin-1-yl)-piperidin-1-yl]-propyl}-5-methanesulfonyl-4,5,6,7-tetrahydro-1H-pyrazolo[4,3-c]pyridin-3-yl)-2-trifluoromethyl-benzylamide] | 100
CC(C)CCNCc1cc(-c2nn(CCCN3CCC(N4CCCC4=O)CC3)c3c2CN(S(C)(=O)=O)CC3)ccc1C(F)(F)F [Example 47, 1-{1-[3-(5-Methanesulfonyl-3-{3-[(3-methyl-butylamino)-methyl]-4-trifluoromethyl-phenyl}-4,5,6,7-tetrahydro-pyrazolo[4,3-c]pyridin-1-yl)-propyl]-piperidin-4-yl}-pyrrolidin-2-one] | 300
CC(C)c1cccc(NCc2cc(-c3nn(CCCN4CCC(N5CCCC5=O)CC4)c4c3CN(S(C)(=O)=O)CC4)ccc2Cl)c1 [Example 211, 1-{1-[3-(3-{4-Chloro-3-[(3-isopropyl-phenylamino)-methyl]-phenyl}-5-methanesulfonyl-4,5,6,7-tetrahydro-pyrazolo[4,3-c]pyridin-1-yl)-propyl]-piperidin-4-yl}-pyrrolidin-2-one] | 370
CC(C)CC(=O)NCc1cc(-c2nn(CC(O)CN3CCC(C(=O)N4CCCC4)CC3)c3c2CN(S(C)(=O)=O)CC3)ccc1C(F)(F)F (stereo not drawn) [Example 284, N-[5-(1-{2-Hydroxy-3-[4-(pyrrolidine-1-carbonyl)-piperidin-1-yl]-propyl}-5-methanesulfonyl-4,5,6,7-tetrahydro-1H-pyrazolo[4,3-c]pyridin-3-yl)-2-trifluoromethyl-benzyl]-3-methyl-butyramide] | 60
CS(=O)(=O)N1CCc2c(c(-c3ccc(C(F)(F)F)c(CNC(=O)N4CCCCC4)c3)nn2CC(O)CN2CCC(N3CCCC3=O)CC2)C1 (stereo not drawn) [Example 112, Piperidine-1-carboxylic acid 5-(1-{2-hydroxy-3-[4-(2-oxo-pyrrolidin-1-yl)-piperidin-1-yl]-propyl}-5-methanesulfonyl-4,5,6,7-tetrahydro-1H-pyrazolo[4,3-c]pyridin-3-yl)-2-trifluoromethyl-benzylamide] | 100
CCSC(=O)NCc1cc(-c2nn(CCCN3CCC(N4CCCC4=O)CC3)c3c2CN(S(C)(=O)=O)CC3)ccc1C(F)(F)F [Example 138, [5-(5-Methanesulfonyl-1-{3-[4-(2-oxo-pyrrolidin-1-yl)-piperidin-1-yl]-propyl}-4,5,6,7-tetrahydro-1H-pyrazolo[4,3-c]pyridin-3-yl)-2-trifluoromethyl-benzyl]-thiocarbamic acid S-ethyl ester] | 430
